Drawing on US11524960B2, “Heterobicyclic inhibitors of MAT2A and methods of use for treating cancer” (AGIOS PHARMACEUTICALS, INC., priority 2018, dated 2022), this text covers IC50 for 21 molecules.

The test system of one assay is HCT116 MTAP−/−. The experiment in a line: Inhibition of cellular proliferation (Cell Titer Glo), HCT116 MTAP−/−. It is filed as cell-based, human. As to conditions: Homo sapiens, HCT-116, 96 h, 4 days, IC50 score, read-out: 4 Day Relative Growth Inhibition (MTAP −/−; Example 277). The method in brief:
(§1)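 Proliferation was read as ATP luminescence (Cell Titer Glo) after a 4-day, 37 °C exposure of HCT116 cells differing only in MTAP deletion status. Dosing was 10 points, 3-fold steps, added 24 h post-plating; signal minus blank, relative to 0.2% DMSO control wells, was plotted against log molar concentration.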

In another assay the target is T1, MAT2A homodimer (Homo sapiens, UniProt P31153).
T1 construct: inferred from Ni sepharose purification and imidazole elution; made in house; host or cells: Sf9 insect cells, recombinant baculovirus (Bac to Bac, pFASTBAC1)
T1 sequence (P31153 whole entry): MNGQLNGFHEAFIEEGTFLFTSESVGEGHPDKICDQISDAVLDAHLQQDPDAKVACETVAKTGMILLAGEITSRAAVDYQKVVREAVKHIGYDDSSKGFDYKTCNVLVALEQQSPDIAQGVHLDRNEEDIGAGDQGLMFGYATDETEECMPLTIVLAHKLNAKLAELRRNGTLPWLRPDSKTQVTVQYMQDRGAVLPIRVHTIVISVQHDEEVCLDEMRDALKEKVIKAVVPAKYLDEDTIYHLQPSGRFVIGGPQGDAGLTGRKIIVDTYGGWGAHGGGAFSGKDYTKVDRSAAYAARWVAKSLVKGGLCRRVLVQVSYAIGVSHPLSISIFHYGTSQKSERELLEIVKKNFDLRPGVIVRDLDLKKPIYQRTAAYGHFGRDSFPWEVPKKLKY
As to the kind of experiment: Biochemical assay: inhibition of MAT2A (phosphate release, PiColorLock Gold). To be noted: MAT2A IC50 score; read-out: Enzyme Inhibition (Example 275). The method in brief:
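Phosphate formed alongside SAM was read with PiColorLock Gold and quantified against a potassium phosphate standard curve. Reactions ran 60 min at 25 °C after adding a substrate mix of 500 μM ATP and 400 μM L-methionine (mix concentrations). Compound had first been preincubated 60 min with recombinant Sf9-derived MAT2A homodimer ([…]) in pH 8.0 Tris buffer containing MgCl2, KCl, EDTA and BSA.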

For assay [1], the system named is SAM in HCT116 human colon carcinoma cell line engineered to delete the MTAP gene (MTAP −/−). The experiment in a line: Cellular assay of target engagement (SAM) by LC-MS/MS. The class given is cell-based. To be noted: Homo sapiens, HCT-116, 72 h, IC50 score, read-out: Cell 72 h SAM Inhibition (MTAP −/−; Example 276). In short, it runs like this:
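Intracellular SAM, the MAT2A product, was measured by quantitative LC-MS/MS against a d3-SAM standard in methanol/acetic acid extracts. Extracts came from HCT116 MTAP −/− cells exposed for 72 h at 37 °C to a ten-point, threefold dilution series of compound, added one day after seeding.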

The next assay concerns HCT116 MTAP+/+. The experiment in a line: Inhibition of cellular proliferation (Cell Titer Glo), HCT116 MTAP+/+. It is filed as cell-based, human. As to conditions: Homo sapiens, HCT-116, 96 h, 4 days, IC50 score, read-out: 4 Day Relative Growth Inhibition (MTAP +/+; Example 277). The method in brief:
as §1
For orientation: Cellular ATP, detected with luciferase, serves as a proxy for viable cell number.

For the molecule `Cn1cnc2ccc(-n3cc4ccc(NCC(F)(F)F)nc4c(-c4ccc(Cl)cc4)c3=O)cc21` [Example 234, 8-(4-chlorophenyl)-6-(1-methyl-1H-benzo[d]imidazol-6-yl)-2-(2,2,2-trifluoroethylamino)-1,6-naphthyridin-7(6H)-one], the IC50 in the assay on HCT116 MTAP−/− is below 100 nM; on MAT2A homodimer, below 100 nM; in assay [1] it was below 100 nM; with HCT116 MTAP+/+, above 10000 nM.

For `Cn1nnc2ccc(-n3cc4ccc(NCC(F)(F)F)nc4c(-c4ccc(Cl)cc4)c3=O)cc21` [Example 235, 8-(4-chlorophenyl)-6-(1-methyl-1H-benzo[d][1,2,3]triazol-6-yl)-2-(2,2,2-trifluoroethylamino)-1,6-naphthyridin-7(6H)-one], the IC50 in the assay on HCT116 MTAP−/− was below 100 nM; on MAT2A homodimer, below 100 nM; in assay [1], below 100 nM; with HCT116 MTAP+/+, above 10000 nM.

Consider `Cn1cc2cc(-n3cc4ccc(NCC(F)(F)F)nc4c(-c4ccc(Cl)cc4)c3=O)ccc2n1` [Example 236, 8-(4-chlorophenyl)-6-(2-methyl-2H-indazol-5-yl)-2-(2,2,2-trifluoroethylamino)-1,6-naphthyridin-7(6H)-one], for which the IC50 with HCT116 MTAP−/− was below 100 nM; on MAT2A homodimer, below 100 nM; in assay [1], below 100 nM; in the assay with HCT116 MTAP+/+ it was above 10000 nM.

Turning to `Cc1c2cc(-n3cc4ccc(NCC(F)(F)F)nc4c(-c4ccc(Cl)cc4)c3=O)ccc2nn1C` [Example 237, 8-(4-chlorophenyl)-6-(2,3-dimethyl-2H-indazol-5-yl)-2-(2,2,2-trifluoroethylamino)-1,6-naphthyridin-7(6H)-one], the IC50 was below 100 nM with HCT116 MTAP−/−, below 100 nM on MAT2A homodimer, below 100 nM in assay [1] and above 10000 nM in the assay on HCT116 MTAP+/+.

Regarding `Cn1cc2cc(-n3cc4ccc(NCC(F)(F)F)nc4c(-c4ccc(OC(F)F)cc4)c3=O)ccc2n1` [Example 239, 8-(4-(difluoromethoxy)phenyl)-6-(2-methyl-2H-indazol-5-yl)-2-(2,2,2-trifluoroethylamino)-1,6-naphthyridin-7(6H)-one], the IC50 with HCT116 MTAP−/− is below 100 nM; at MAT2A homodimer, below 100 nM; in assay [1] it was below 100 nM; in the assay with HCT116 MTAP+/+ it was 100 to 10000 nM.

As for `Cn1cnc2ccc(-n3cc4ccc(NCC(F)(F)F)nc4c(-c4ccc(OC(F)F)cc4)c3=O)cc21` [Example 240, 8-(4-(difluoromethoxy)phenyl)-6-(1-methyl-1H-benzo[d]imidazol-6-yl)-2-(2,2,2-trifluoroethylamino)-1,6-naphthyridin-7(6H)-one], the IC50 in the assay on HCT116 MTAP−/− is below 100 nM; on MAT2A homodimer, below 100 nM; in assay [1], below 100 nM; in the assay with HCT116 MTAP+/+ it was above 10000 nM.

Turning to `COc1ccc(-n2cc3ccc(NCC(F)(F)F)nc3c(-c3ccc(OC(F)F)cc3)c2=O)cc1` [Example 241, 8-(4-(difluoromethoxy)phenyl)-6-(4-methoxyphenyl)-2-(2,2,2-trifluoroethylamino)-1,6-naphthyridin-7(6H)-one], the IC50 was below 100 nM in the assay on HCT116 MTAP−/−, below 100 nM on MAT2A homodimer, below 100 nM in assay [1] and 100 to 10000 nM with HCT116 MTAP+/+.

For the molecule `Cn1cc2cc(-n3cc4ccc(NC5CC5)nc4c(-c4ccc(OC(F)F)cc4)c3=O)ccc2n1` [Example 242, 2-(cyclopropylamino)-8-(4-(difluoromethoxy)phenyl)-6-(2-methyl-2H-indazol-5-yl)-1,6-naphthyridin-7(6H)-one], the IC50 in the assay with HCT116 MTAP−/− is below 100 nM; on MAT2A homodimer it was below 100 nM; in assay [1], below 100 nM; in the assay with HCT116 MTAP+/+, above 10000 nM.

With `CCOc1ccc2cn(-c3ccc4ncccc4c3)c(=O)c(-c3ccc(Cl)cc3)c2n1` [Example 243, 8-(4-chlorophenyl)-2-ethoxy-6-(quinolin-6-yl)-1,6-naphthyridin-7(6H)-one], the IC50 in the assay with HCT116 MTAP−/− was below 100 nM; on MAT2A homodimer, below 100 nM; in assay [1], below 100 nM; in the assay with HCT116 MTAP+/+, above 10000 nM.

For `CCOc1ccc2cn(-c3ccc4nccnc4c3)c(=O)c(-c3ccc(Cl)cc3)c2n1` [Example 244, 8-(4-chlorophenyl)-2-ethoxy-6-(quinoxalin-6-yl)-1,6-naphthyridin-7(6H)-one], the IC50 in the assay with HCT116 MTAP−/− is below 100 nM; at MAT2A homodimer, below 100 nM; in assay [1], below 100 nM; in the assay with HCT116 MTAP+/+, 100 to 10000 nM.

Regarding `CCOc1ccc2cn(-c3ccc4nnccc4c3)c(=O)c(-c3ccc(Cl)cc3)c2n1` [Example 245, 8-(4-chlorophenyl)-6-(cinnolin-6-yl)-2-ethoxy-1,6-naphthyridin-7(6H)-one], the IC50 was 100 to 10000 nM in the assay with HCT116 MTAP−/−, below 100 nM at MAT2A homodimer, below 100 nM in assay [1] and above 10000 nM in the assay on HCT116 MTAP+/+.

Regarding `CCOc1ccc2cn(-c3ccc4ncncc4c3)c(=O)c(-c3ccc(Cl)cc3)c2n1` [Example 246, 8-(4-chlorophenyl)-2-ethoxy-6-(quinazolin-6-yl)-1,6-naphthyridin-7(6H)-one], the IC50 with HCT116 MTAP−/− is 100 to 10000 nM; at MAT2A homodimer it was below 100 nM; in assay [1], 100 to 1000 nM; in the assay with HCT116 MTAP+/+, 100 to 10000 nM.

As to `CCOc1ccc2cn(-c3ccc4nn(C)cc4c3)c(=O)c(-c3ccc(Cl)cc3)c2n1` [Example 247, 8-(4-chlorophenyl)-2-ethoxy-6-(2-methyl-2H-indazol-5-yl)-1,6-naphthyridin-7(6H)-one], the IC50 was below 100 nM with HCT116 MTAP−/−, below 100 nM at MAT2A homodimer, below 100 nM in assay [1] and 100 to 10000 nM in the assay on HCT116 MTAP+/+.

For `CCOc1ccc2cn(-c3ccc4ncn(C)c4c3)c(=O)c(-c3ccc(Cl)cc3)c2n1` [Example 248, 8-(4-chlorophenyl)-2-ethoxy-6-(1-methyl-1H-benzo[d]imidazol-6-yl)-1,6-naphthyridin-7(6H)-one], the IC50 with HCT116 MTAP−/− is below 100 nM; at MAT2A homodimer, below 100 nM; in assay [1], below 100 nM; with HCT116 MTAP+/+, 100 to 10000 nM.

Turning to `CCOc1ccc2cn(-c3ccc(=O)n(CCS(C)(=O)=O)c3)c(=O)c(-c3ccc(OC(F)F)cc3)c2n1` [Example 249, 8-(4-(difluoromethoxy)phenyl)-2-ethoxy-6-(1-(2-(methylsulfonyl)ethyl)-6-oxo-1,6-dihydropyridin-3-yl)-1,6-naphthyridin-7(6H)-one], the IC50 in the assay with HCT116 MTAP−/− is 100 to 10000 nM; on MAT2A homodimer it was below 100 nM; in assay [1], below 100 nM; with HCT116 MTAP+/+, 100 to 10000 nM.

As to `CCOc1ccc2cn(-c3ccc(OC)cc3)c(=O)c(-c3ccc(OC(F)F)cc3)c2n1` [Example 250, 8-(4-(difluoromethoxy)phenyl)-2-ethoxy-6-(4-methoxyphenyl)-1,6-naphthyridin-7(6H)-one], the IC50 is below 100 nM in the assay with HCT116 MTAP−/−, below 100 nM on MAT2A homodimer, below 100 nM in assay [1] and 100 to 10000 nM in the assay on HCT116 MTAP+/+.

Regarding `CCOc1ccc2cn(-c3ccc4nn(C)cc4c3)c(=O)c(-c3ccc(OC(F)F)cc3)c2n1` [Example 251, 8-(4-(difluoromethoxy)phenyl)-2-ethoxy-6-(2-methyl-2H-indazol-5-yl)-1,6-naphthyridin-7(6H)-one], the IC50 with HCT116 MTAP−/− was below 100 nM; on MAT2A homodimer, below 100 nM; in assay [1] it was below 100 nM; in the assay on HCT116 MTAP+/+ it was 100 to 10000 nM.

Regarding `CCOc1ccc2cn(-c3ccc4nnn(C)c4c3)c(=O)c(-c3ccc(OC(F)F)cc3)c2n1` [Example 252, 8-(4-(difluoromethoxy)phenyl)-2-ethoxy-6-(1-methyl-1H-benzo[d][1,2,3]triazol-6-yl)-1,6-naphthyridin-7(6H)-one], the IC50 in the assay with HCT116 MTAP−/− was 100 to 10000 nM; on MAT2A homodimer, below 100 nM; in assay [1], below 100 nM; in the assay with HCT116 MTAP+/+, 100 to 10000 nM.

As to `CCOc1ccc2cn(-c3ccc4ncn(C)c4c3)c(=O)c(-c3ccc(OC(F)F)cc3)c2n1` [Example 253, 8-(4-(difluoromethoxy)phenyl)-2-ethoxy-6-(1-methyl-1H-benzo[d]imidazol-6-yl)-1,6-naphthyridin-7(6H)-one], the IC50 is below 100 nM in the assay with HCT116 MTAP−/−, below 100 nM on MAT2A homodimer, below 100 nM in assay [1] and 100 to 10000 nM in the assay with HCT116 MTAP+/+.

For the molecule `Cn1cc2cc(-n3cc4ccc(OCC(F)(F)F)nc4c(-c4ccc(Cl)cc4)c3=O)ccc2n1` [Example 254, 8-(4-chlorophenyl)-6-(2-methyl-2H-indazol-5-yl)-2-(2,2,2-trifluoroethoxy)-1,6-naphthyridin-7(6H)-one], the IC50 in the assay on HCT116 MTAP−/− was below 100 nM; at MAT2A homodimer it was below 100 nM; in assay [1], below 100 nM; in the assay on HCT116 MTAP+/+, above 10000 nM.

As to `Cn1cnc2ccc(-n3cc4ccc(OCC(F)(F)F)nc4c(-c4ccc(Cl)cc4)c3=O)cc21` [Example 255, 8-(4-chlorophenyl)-6-(1-methyl-1H-benzo[d]imidazol-6-yl)-2-(2,2,2-trifluoroethoxy)-1,6-naphthyridin-7(6H)-one], the IC50 was below 100 nM in the assay on HCT116 MTAP−/−, below 100 nM at MAT2A homodimer, below 100 nM in assay [1] and above 10000 nM in the assay on HCT116 MTAP+/+.
